Molecular target: ATP-dependent translocase ABCB1 (Homo sapiens, UniProt P08183)
Assay: TP_TRANSPORTER: transepithelial transport (basal to apical) in MDR1-expressing LLC-PK1 cells
Assay type: functional, cell-based
Conditions: pig

Sequence of ATP-dependent translocase ABCB1 (P08183 whole entry): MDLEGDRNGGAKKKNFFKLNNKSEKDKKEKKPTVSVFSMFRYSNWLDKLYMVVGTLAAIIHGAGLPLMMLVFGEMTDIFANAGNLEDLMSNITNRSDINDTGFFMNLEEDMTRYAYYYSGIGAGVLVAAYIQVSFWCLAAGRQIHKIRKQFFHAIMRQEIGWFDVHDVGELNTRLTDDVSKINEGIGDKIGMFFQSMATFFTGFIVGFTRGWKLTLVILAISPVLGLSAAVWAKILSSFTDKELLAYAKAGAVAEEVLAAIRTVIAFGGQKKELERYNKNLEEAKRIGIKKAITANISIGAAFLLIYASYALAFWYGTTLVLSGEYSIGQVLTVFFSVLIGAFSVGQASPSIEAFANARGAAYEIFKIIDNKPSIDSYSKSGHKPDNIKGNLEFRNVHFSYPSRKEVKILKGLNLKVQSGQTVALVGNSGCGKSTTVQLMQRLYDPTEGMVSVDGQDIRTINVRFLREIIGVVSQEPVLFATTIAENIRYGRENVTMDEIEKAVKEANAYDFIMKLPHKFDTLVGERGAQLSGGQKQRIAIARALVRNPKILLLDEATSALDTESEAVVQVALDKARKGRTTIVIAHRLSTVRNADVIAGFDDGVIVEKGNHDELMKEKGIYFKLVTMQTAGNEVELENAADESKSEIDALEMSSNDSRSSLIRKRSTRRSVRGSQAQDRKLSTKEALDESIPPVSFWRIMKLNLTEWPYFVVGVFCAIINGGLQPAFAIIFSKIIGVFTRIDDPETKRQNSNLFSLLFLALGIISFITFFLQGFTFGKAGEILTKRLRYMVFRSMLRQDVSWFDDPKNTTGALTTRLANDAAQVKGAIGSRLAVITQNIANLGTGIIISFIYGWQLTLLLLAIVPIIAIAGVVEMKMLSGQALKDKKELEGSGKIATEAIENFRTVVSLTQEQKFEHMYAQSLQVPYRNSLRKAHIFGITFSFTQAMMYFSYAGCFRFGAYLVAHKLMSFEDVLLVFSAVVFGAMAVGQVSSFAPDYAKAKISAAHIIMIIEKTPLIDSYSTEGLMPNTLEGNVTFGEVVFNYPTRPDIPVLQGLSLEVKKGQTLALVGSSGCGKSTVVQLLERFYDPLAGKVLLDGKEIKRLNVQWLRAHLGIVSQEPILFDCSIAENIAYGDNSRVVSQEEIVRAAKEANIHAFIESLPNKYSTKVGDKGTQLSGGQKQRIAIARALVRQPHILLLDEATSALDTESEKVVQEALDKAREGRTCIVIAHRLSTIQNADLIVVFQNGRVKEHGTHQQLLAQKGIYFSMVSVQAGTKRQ

Activity: is not a substrate [-]
SMILES: C[C@]12CCC(=O)C=C1CC[C@@H]1[C@@H]2CC[C@@]2(C)[C@H]1CC[C@]2(O)C(=O)CO [CORTODOXONE]

— ChEMBL document CHEMBL2073785, “The role of the efflux transporter P-glycoprotein in brain penetration of prednisolone” (J Endocrinol, 2002)
